The test relates to P388 leukemia ip, CD2F1 mice, survival T/C. The test can be described thus: NCI In Vivo Anticancer Drug Screen. Data for tumor model P388 Leukemia (intraperitoneal) in CD2F1 (CDF1) mice. To be noted: endpoint: median survival time, higher = longer survival. In outline: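 Mice carrying the transplanted tumor received test compound or vehicle. Survival was recorded in each group, and the value is the treated-group measurement divided by that of the vehicle-treated control group.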

[1] abbreviates: dose: 12.5 mg/kg/injection, schedule: Q01DX009 (ip), vehicle: saline.
The mark [2] stands for this setting: dose: 25.0 mg/kg/injection, schedule: Q01DX009 (ip), vehicle: saline.
[3] abbreviates: dose: 50.0 mg/kg/injection, schedule: Q01DX009 (ip), vehicle: saline.
Where [4] appears, read: dose: 100.0 mg/kg/injection, schedule: Q01DX009 (ip), vehicle: saline.
Setting [5] is: dose: 200.0 mg/kg/injection, schedule: Q01DX001 (ip), vehicle: saline with Tween-80.
The mark [6] stands for this setting: dose: 100.0 mg/kg/injection, schedule: Q04DX003 (ip), vehicle: Klucel (hydroxypropylcellulose) (HPC).
Where [7] appears, read: dose: 200.0 mg/kg/injection, schedule: Q04DX003 (ip), vehicle: Klucel (hydroxypropylcellulose) (HPC).
Where [8] appears, read: dose: 100.0 mg/kg/injection, schedule: Q01DX009 (ip), vehicle: saline with Tween-80.
Setting [9] is: dose: 60.0 mg/kg/injection, schedule: Q01DX005 (ip), vehicle: saline with Tween-80.
The mark [10] stands for this setting: dose: 120.0 mg/kg/injection, schedule: Q01DX005 (ip), vehicle: saline with Tween-80.
Where [11] appears, read: dose: 240.0 mg/kg/injection, schedule: Q01DX005 (ip), vehicle: saline with Tween-80.
The mark [12] stands for this setting: dose: 6.25 mg/kg/injection, schedule: Q01DX009 (ip), vehicle: saline with Tween-80.
[13] abbreviates: dose: 12.5 mg/kg/injection, schedule: Q01DX009 (ip), vehicle: saline with Tween-80.
The mark [14] stands for this setting: dose: 25.0 mg/kg/injection, schedule: Q01DX009 (ip), vehicle: saline with Tween-80.

Where “and” joins values, the source holds several entries; their conditions need not be identical. Equal entries are not always repeated. Toxic doses and inconclusive results are not listed.

As for `O/N=C/C=N/O.O/N=C/C=N/O.[Ni]`, the T/C was 100 % of control (dose: 0.78 mg/kg/injection, schedule: Q01DX009 (ip), vehicle: saline); 98 % of control (dose: 1.56 mg/kg/injection, schedule: Q01DX009 (ip), vehicle: saline); 91 % of control (dose: 3.13 mg/kg/injection, schedule: Q01DX009 (ip), vehicle: saline); 97 % of control (dose: 6.25 mg/kg/injection, schedule: Q01DX009 (ip), vehicle: saline); 100 % of control under setting [1].
Regarding `C=CCC(C(C)=O)C(C)=NCCN=C(C)C(CC=C)C(C)=O.[Cu]` (stereo not drawn), the T/C is 110 % of control (dose: 6.25 mg/kg/injection, schedule: Q01DX005 (ip), vehicle: saline with Tween-80) and 96 % of control (dose: 12.5 mg/kg/injection, schedule: Q01DX005 (ip), vehicle: saline with Tween-80).
On to `COC(=O)C(N)CSCSCc1ccccc1` (stereo not drawn), for which the T/C reads like this: (dose: 3.13 mg/kg/injection, schedule: Q01DX009 (ip), vehicle: water) 90 % of control; (dose: 6.25 mg/kg/injection, schedule: Q01DX009 (ip), vehicle: water) 90 % of control; (dose: 12.5 mg/kg/injection, schedule: Q01DX009 (ip), vehicle: water) 93 % of control; under setting [2], 100 % of control; (dose: 25.0 mg/kg/injection, schedule: Q01DX009 (ip), vehicle: water) 90 % of control; under setting [3], 98 % of control. In addition, the T/C is 90 % of control (dose: 50.0 mg/kg/injection, schedule: Q01DX009 (ip), vehicle: water) and 101 % of control under setting [4].
For the molecule `c1ccc(Cc2cccc[n+]2C(c2ccccc2)c2ccccc2)cc1`, the T/C is, setting by setting: (dose: 6.25 mg/kg/injection, schedule: Q01DX009 (ip), vehicle: Klucel (hydroxypropylcellulose) (HPC)) 105 % of control; (dose: 12.5 mg/kg/injection, schedule: Q01DX009 (ip), vehicle: Klucel (hydroxypropylcellulose) (HPC)) 87 % of control.
With `Cc1ccc(S(=O)CC#CC#CCS(=O)c2ccc(C)cc2)cc1` (stereo not drawn), the T/C by setting is: (dose: 50.0 mg/kg/injection, schedule: Q01DX001 (ip), vehicle: saline with Tween-80) 93 % of control; (dose: 100.0 mg/kg/injection, schedule: Q01DX001 (ip), vehicle: saline with Tween-80) 97 % of control; under setting [5], 101 % of control.
Take `O=c1c2c([nH]c3c4c(ccc13)NCCC4)CCC2`: the T/C is, setting by setting: (dose: 50.0 mg/kg/injection, schedule: Q04DX002 (ip), vehicle: saline with Tween-80) 95 % of control; (dose: 100.0 mg/kg/injection, schedule: Q04DX002 (ip), vehicle: saline with Tween-80) 94 % of control; (dose: 200.0 mg/kg/injection, schedule: Q04DX002 (ip), vehicle: saline with Tween-80) 92 % of control.
On to `COC(=O)/C=C/COc1ccccc1C(=O)NCc1ccc([N+](=O)[O-])cc1`, for which the T/C reads like this: under setting [6], 109 % of control; under setting [7], 108 % of control; (dose: 400.0 mg/kg/injection, schedule: Q04DX003 (ip), vehicle: Klucel (hydroxypropylcellulose) (HPC)) 109 % of control.
Take `COc1cc2c(cc1I)-c1c(cc(OC)c(OC)c1OC)CC[C@@H]2NC(C)=O`: the T/C (dose: 88.0 mg/kg/injection, schedule: Q01DX009 (ip), vehicle: saline with Tween-80) is 118 % of control; the T/C (dose: 100.0 mg/kg/injection, schedule: Q01DX009 (ip), vehicle: saline sonified) is 95 % of control; the T/C under setting [8] is 95 % of control; the T/C (dose: 100.0 mg/kg/injection, schedule: Q04DX003 (ip), vehicle: saline with Tween-80) was 100 % of control; the T/C (dose: 200.0 mg/kg/injection, schedule: Q01DX009 (ip), vehicle: saline with Tween-80) is 100 % of control; the T/C (dose: 200.0 mg/kg/injection, schedule: Q04DX003 (ip), vehicle: saline with Tween-80) was 100 % of control. Besides, the T/C (dose: 400.0 mg/kg/injection, schedule: Q01DX009 (ip), vehicle: saline with Tween-80) was 104 % of control and the T/C (dose: 400.0 mg/kg/injection, schedule: Q04DX003 (ip), vehicle: saline with Tween-80) was 90 % of control.
For `O=C1Nc2ccccc2/C1=N/N=C/c1ccccc1Cl`, the T/C is, setting by setting: (dose: 50.0 mg/kg/injection, schedule: Q01DX009 (ip), vehicle: Klucel (hydroxypropylcellulose) (HPC)) 99 % of control and 88 % of control; (dose: 100.0 mg/kg/injection, schedule: Q01DX009 (ip), vehicle: Klucel (hydroxypropylcellulose) (HPC)) 86 % of control and 97 % of control; (dose: 200.0 mg/kg/injection, schedule: Q01DX009 (ip), vehicle: Klucel (hydroxypropylcellulose) (HPC)) 96 % of control.
For the molecule `COc1cc(C2C(C#N)=C(C)Nc3nc(N)nc(N)c32)cc(OC)c1OC` (stereo not drawn), the T/C is, setting by setting: under setting [9], 94 % of control; under setting [10], 106 % of control; under setting [11], 104 % of control.
On to `OCC1OC(Nc2ccccc2/C=N\O)C(O)C1O` (stereo not drawn), for which the T/C is 98 % of control under setting [1]; 107 % of control and 96 % of control under setting [2]; 99 % of control and 115 % of control under setting [3]; 98 % of control and 95 % of control under setting [4].
As for `CCOP(=O)(O)C1CCCC(C)[N-]1.CCOP(=O)(O)C1CCCC(C)[N-]1.CCOP(=O)(O)C1CCCC(C)[N-]1.[Cr+3]` (stereo not drawn), the T/C by setting is: under setting [6], 100 % of control; under setting [7], 92 % of control.
Take `CCN1CCCC(OC(=O)c2cccc3[nH]ccc23)C1` (stereo not drawn): the T/C (dose: 3.13 mg/kg/injection, schedule: Q01DX009 (ip), vehicle: saline with Tween-80) is 118 % of control; the T/C under setting [12] is 103 % of control; the T/C under setting [13] was 98 % of control; the T/C under setting [14] is 99 % of control.
As for `O=C1OC(C2OC(=O)C(=O)C2C2CCCCCCC2=O)C(C2CCCCCCC2=O)C1=O` (stereo not drawn), the T/C runs as follows: under setting [9], 102 % of control; under setting [10], 95 % of control; under setting [11], 100 % of control.
In the case of `CCN(CC)c1ccc(/C=C(\C#N)C(N)=S)cc1`, the T/C by setting is: under setting [3], 89 % of control; under setting [4], 101 % of control; (dose: 200.0 mg/kg/injection, schedule: Q01DX009 (ip), vehicle: saline) 105 % of control.
For the molecule `CCN(CC)c1ccc(C(C#N)(c2ccc(N(CC)Cc3cccc(S(=O)(=O)O)c3)cc2)c2ccc(N(CC)Cc3cccc(S(=O)(=O)O)c3)cc2)cc1`, the T/C (dose: 72.0 mg/kg/injection, schedule: Q01DX001 (ip), vehicle: saline with Tween-80) is 98 % of control and 102 % of control; the T/C (dose: 72.0 mg/kg/injection, schedule: Q01DX005 (ip), vehicle: saline with Tween-80) was 99 % of control; the T/C (dose: 120.0 mg/kg/injection, schedule: Q01DX001 (ip), vehicle: saline with Tween-80) is 104 % of control and 92 % of control; the T/C under setting [10] was 92 % of control; the T/C under setting [5] was 90 % of control and 96 % of control; the T/C (dose: 200.0 mg/kg/injection, schedule: Q01DX005 (ip), vehicle: saline with Tween-80) was 98 % of control.
Consider `Nc1ccc2c(c1)CN1C(=O)c3ccccc3C1=N2`, for which the T/C under setting [12] is 100 % of control; the T/C under setting [13] is 93 % of control; the T/C (dose: 22.2 mg/kg/injection, schedule: Q01DX009 (ip), vehicle: saline with Tween-80) is 111 % of control; the T/C under setting [14] was 96 % of control; the T/C under setting [2] was 91 % of control; the T/C (dose: 30.0 mg/kg/injection, schedule: Q01DX009 (ip), vehicle: saline with Tween-80) is 104 % of control. Besides, the T/C runs as follows: (dose: 33.4 mg/kg/injection, schedule: Q01DX009 (oral), vehicle: saline with Tween-80) 97 % of control; (dose: 40.0 mg/kg/injection, schedule: Q01DX009 (ip), vehicle: saline with Tween-80) 90 % of control; under setting [3], 161 % of control; (dose: 50.0 mg/kg/injection, schedule: Q01DX009 (oral), vehicle: saline with Tween-80) 108 % of control; (dose: 60.0 mg/kg/injection, schedule: Q01DX009 (ip), vehicle: saline with Tween-80) 119 % of control; (dose: 75.0 mg/kg/injection, schedule: Q01DX009 (oral), vehicle: saline with Tween-80) 108 % of control. The T/C by setting is: under setting [8], 100 % of control and 93 % of control; (dose: 112.4 mg/kg/injection, schedule: Q01DX009 (ip), vehicle: saline with Tween-80) 121 % of control; (dose: 112.4 mg/kg/injection, schedule: Q01DX009 (oral), vehicle: saline with Tween-80) 117 % of control; (dose: 168.5 mg/kg/injection, schedule: Q01DX009 (oral), vehicle: saline with Tween-80) 108 % of control.

The record behind these values is PubChem BioAssay AID330 (DTP/NCI, 2004).
